Legend:
[1] = target: T1, ER (Homo sapiens, UniProt P03372); experiment: In-cell western blot analysis, relative ER percentage (compounds B1-B126); type: cell-based; settings: ER degradation, 16 hours, read-out: ICW DC50
T1 construct: endogenous in cells; probably T47D or MCF-7
T1 sequence (P03372 1-595): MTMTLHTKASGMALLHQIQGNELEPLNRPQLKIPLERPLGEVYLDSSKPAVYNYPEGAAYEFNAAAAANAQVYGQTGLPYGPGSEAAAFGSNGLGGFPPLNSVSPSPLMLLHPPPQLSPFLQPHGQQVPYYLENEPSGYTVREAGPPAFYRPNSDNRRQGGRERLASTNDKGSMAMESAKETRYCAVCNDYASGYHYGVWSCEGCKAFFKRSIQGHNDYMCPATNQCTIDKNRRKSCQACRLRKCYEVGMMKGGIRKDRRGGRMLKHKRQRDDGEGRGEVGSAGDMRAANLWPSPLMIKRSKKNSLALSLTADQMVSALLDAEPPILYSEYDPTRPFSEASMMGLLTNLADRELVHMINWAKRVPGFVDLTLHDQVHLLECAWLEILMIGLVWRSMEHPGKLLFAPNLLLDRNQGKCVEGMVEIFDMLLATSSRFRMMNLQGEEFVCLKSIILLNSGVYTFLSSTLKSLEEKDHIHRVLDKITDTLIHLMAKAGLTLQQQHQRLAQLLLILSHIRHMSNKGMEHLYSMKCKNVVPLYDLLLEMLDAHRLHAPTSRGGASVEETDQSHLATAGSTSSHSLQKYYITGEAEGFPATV
Experimental: In-cell western blot analysis. Cells are seeded in multi-well plates (e.g., at 40,000 or 10,000 cells/well). Diluted compounds at certain concentration are added (final 0.5% DMSO) and cells are incubated for a certain period of time (e.g., 16 hours). Formaldehyde (e.g., PBS: FA=9:1) is added and followed by washing with PBS. The cells are blocked with Licor blocking buffer (Li-Cor). The relative ER percentage in treated cells are obtained by comparing the values of treated wells to those in untreated and DMSO-treated wells as 100%.
In-cell western blot analysis. a. seed cells in black-sided/clear bottom 96- or 384-well plates at 40,000 or 10,000 cells/well, overnight; b. add diluted compounds (final 0.5% DMSO), 16 hours. […] RT 2h, gentle shaking. Negative control: cells plus secondary antibodies (no primary antibodies); e. wash×4 with PBS +0.05-0.1% Tween 20, gentel shaking; f. anti-rabbit-680 and anti-mouse-800 (both 1:1000 in LiCor block+0.05% Tween20, RT 1h, gentle shaking, no light. LI-COR: 0.2% to reduce background; g. wash×4 with PBS+0.05% Tween 20, gental shaking; h. add 100 μL or 25 μL of PBS to each well and read on CLX plate reader. The relative ER percentage in treated cells were obtained by comparing the values of treated wells to those in untreated and DMSO-treated wells as 100%.

[2] = Cell growth assay, WST-8 (compounds B1-B126); type: cell-based; settings: 96 h; T47D cell line, WST-8, 4 days; read-out: Cell growth inhibition in T47D cell line IC50
Experimental: Cell Growth Assay. The cells are seeded at certain concentration (e.g., at 1500/well) in multi-well plates overnight. Cells are subsequently treated with the compounds. A certain period of time (e.g., 4 days) after the compound treatment, 10% WST-8 reagent is added to the culture medium and incubate under certain condiction (e.g., in a CO2 incubator at 37° C. for 2.5 hours). The absorbance is measured on each sample using a microplate reader at certain wavelength (e.g., 450 nm). The relative absorbance is calculated against the vehicle control from three individually repeats.
Cell Growth Assay. The cells were seeded at 1500/well in 96 well plates overnight. One day after the seeding, they were treated with indicated doses of compounds respectively. 4 days after the compound treatment, 10% WST-8 reagent was added to the culture medium and incubate in a CO2 incubator at 37° C. for 2.5 hours. Before reading, the plate was mixed gently on an orbital shaker for one minute to ensure homogeneous distribution of color. The absorbance was measured of each sample using a microplate reader at a wavelength of 450 nm. The relative absorbance was calculated against the vehicle control from three individually repeats.

| Compound | DC50 [1] [µM] | IC50 [2] [µM] |
| --- | --- | --- |
| 3-((R)-7-((7-(6-((6S,8R)-7-(2,2- difluoroethyl)-8-methyl-6,7,8,9- tetrahydro-3H-pyrazolo[4,3- f]isoquinolin-6-yl)pyridin-3-yl)-7- azaspiro[3.5]nonan-2-yl)mcthyl)-1- oxo-1,3,5,5a,6,7,8,9-octahydro-2H- pyrazino[1′,2′:4,5][1,4]oxazino[2,3- e]isoindol-2-yl)piperidine-2,6- dione [Compound B83] | > 0.1 |  |
| C[C@@H]1Cc2c(ccc3[nH]ncc23)[C@@H](c2c(F)cc(N3CCC(CN4CCC5(CCOc6c5ccc5c6CN(C6CCC(=O)NC6=O)C5=O)CC4)CC3)cc2F)N1CC(F)F (stereo partly drawn) [Compound B47, 3-(1-((1-(4-((6S,8R)-7-(2,2-difluoroethyl)-8-methyl-6,7,8,9-tetrahydro-3H-pyrazolo[4,3-f]isoquinolin-6-yl)-3,5-difluorophenyl)piperidin-4-yl)methyl)-7′-oxo-2′,3′,7′,9′-tetrahydro-8′H-spiro[piperidine-4,4′-pyrano[2,3-e]isoindol]-8′-yl)piperidine-2,6-dione] |  | < 0.001 |
| C[C@@H]1Cc2c(ccc3[nH]ncc23)[C@@H](c2ccc(N3CCC4(CCN(CC(=O)N5Cc6cc7c(cc6C5)C(=O)N(C5CCC(=O)NC5=O)C7=O)CC4)CC3)cn2)N1CC(F)F (stereo partly drawn) [Compound B50, 6-(2-(9-(6-((6S,8R)-7-(2,2-difluoroethyl)-8-methyl-6,7,8,9-tetrahydro-3H-pyrazolo[4,3-f]isoquinolin-6-yl)pyridin-3-yl)-3,9-diazaspiro[5.5]undecan-3-yl)acetyl)-2-(2,6-dioxopiperidin-3-yl)-6,7-dihydropyrrolo[3,4-f]isoindole-1,3(2H,5H)-dione] | > 0.1 |  |
| C[C@@H]1Cc2c(ccc3[nH]ncc23)[C@@H](c2c(F)cc(N3CCC4(CCN(C(=O)CN5Cc6cc7c(cc6C5)C(=O)N(C5CCC(=O)NC5=O)C7=O)CC4)CC3)cc2F)N1CC(F)F (stereo partly drawn) [Compound B15, 6-(2-(9-(4-((6S,8R)-7-(2,2-difluoroethyl)-8-methyl-6,7,8,9-tetrahydro-3H-pyrazolo[4,3-f]isoquinolin-6-yl)-3,5-difluorophenyl)-3,9-diazaspiro[5.5]undecan-3-yl)-2-oxoethyl)-2-(2,6-dioxopiperidin-3-yl)-6,7-dihydropyrrolo[3,4-f]isoindole-1,3(2H,5H)-dione] |  | < 0.001 |
| C[C@@H]1Cc2c(ccc3[nH]ncc23)[C@@H](c2ccc(N3CCC4(CCN(C(=O)CN5Cc6cc7c(cc6C5)C(=O)N(C5CCC(=O)NC5=O)C7)CC4)CC3)cn2)N1CC(F)(F)F (stereo partly drawn) [Compound B74, 3-(6-(2-(9-(6-((6S,8R)-8-methyl-7-(2,2,2-trifluoroethyl)-6,7,8,9-tetrahydro-3H-pyrazolo[4,3-f]isoquinolin-6-yl)pyridin-3-yl)-3,9-diazaspiro[5.5]undecan-3-yl)-2-oxoethyl)-1-oxo-3,5,6,7-tetrahydropyrrolo[3,4-f]isoindol-2(1H)-yl)piperidine-2,6-dione] |  | 0.001 to 0.01 |
| C[C@@H]1Cc2c(ccc3[nH]ncc23)[C@@H](c2c(F)cc(C3=CCC(C(=O)N4CCC(N5Cc6cc7c(cc6C5)C(=O)N(C5CCC(=O)NC5=O)C7=O)CC4)CC3)cc2F)N1CC(F)F (stereo partly shown) [Compound B102] | > 0.1 |  |
| COc1cc(N2CCC3(CC2)CC(CN2CCC4(CC2)COc2c4ccc4c2CN(C2CCC(=O)NC2=O)C4=O)C3)ccc1[C@@H]1c2ccc3[nH]ncc3c2C[C@@H](C)N1CC(F)F (stereo partly drawn) [Compound B56, 3-(1′-((7-(4-((6S,8R)-7-(2,2-difluoroethyl)-8-methyl-6,7,8,9-tetrahydro-3H-pyrazolo[4,3-f]isoquinolin-6-yl)-3-methoxyphenyl)-7-azaspiro[3.5]nonan-2-yl)methyl)-6-oxo-6,8-dihydro-2H,7H-spiro[furo[2,3-e]isoindole-3,4′-piperidin]-7-yl)piperidine-2,6-dione] | > 0.1 |  |

Now from value to compound, other results behind:

| DC50 [1] [µM] | Compound | IC50 [2] [µM] |
| --- | --- | --- |
| 0.01 to 0.1 | C[C@H]1Cc2c(ccc3[nH]ncc23)[C@H](c2cnc(N3CCC4(CC3)CC(CN3CCN5c6cc7c(cc6OC[C@H]5C3)C(=O)N(C3CCC(=O)NC3=O)C7)C4)nc2)N1CC(F)(F)F (stereo partly drawn) [Compound B118, 3-((R)-3-((7-(5-((6R,8S)-8-methyl-7-(2,2,2-trifluoroethyl)-6,7,8,9-tetrahydro-3H-pyrazolo[4,3-f]isoquinolin-6-yl)pyrimidin-2-yl)-7-azaspiro[3.5]nonan-2-yl)methyl)-8-oxo-1,2,3,4,4a,5,8,10-octahydro-9H-pyrazino[1′,2′:4,5][1,4]oxazino[2,3-f]isoindol-9-yl)piperidine-2,6-dione] |  |
| > 0.1 | C[C@H]1Cc2c(ccc3[nH]ncc23)[C@H](c2cnc(N3CCC4(CC3)CC(CN3CCN(c5ccc(NC6CCC(=O)NC6=O)cc5F)CC3)C4)nc2)N1CC(F)(F)F (stereo partly drawn) [Compound B122, 3-((3-fluoro-4-(4-((7-(5-((6R,8S)-8-methyl-7-(2,2,2-trifluoroethyl)-6,7,8,9-tetrahydro-3H-pyrazolo[4,3-f]isoquinolin-6-yl)pyrimidin-2-yl)-7-azaspiro[3.5]nonan-2-yl)methyl)piperazin-1-yl)phenyl)amino)piperidine-2,6-dione] |  |
| < 0.01 | C[C@@H]1Cc2c(ccc3[nH]ncc23)[C@@H](c2cnc(N3CCC4(CC3)CC(CN3CCN5c6cc7c(cc6OC[C@@H]5C3)C(=O)N(C3CCC(=O)NC3=O)C7)C4)nc2)N1CC(F)(F)F (stereo partly drawn) [Compound B113, 3-((S)-3-((7-(5-((6S,8R)-8-methyl-7-(2,2,2-trifluoroethyl)-6,7,8,9-tetrahydro-3H-pyrazolo[4,3-f]isoquinolin-6-yl)pyrimidin-2-yl)-7-azaspiro[3.5]nonan-2-yl)mcthyl)-8-oxo-1,2,3,4,4a,5,8,10-octahydro-9H-pyrazino[1′,2′:4,5][1,4]oxazino[2,3-f]isoindol-9-yl)piperidine-2,6-dione] |  |
| < 0.01 | C[C@H]1Cc2c(ccc3[nH]ncc23)[C@H](c2cnc(N3CC4(CCC(CN5CCN6c7ccc8c(c7OC[C@@H]6C5)CN([C@@H]5CCC(=O)NC5=O)C8=O)CC4)C3)nc2)N1CC(F)(F)F [Compound B123, (R)-3-((S)-7-((2-(5-((6R,8S)-8-methyl-7-(2,2,2-trifluoroethyl)-6,7,8,9-tetrahydro-3H-pyrazolo[4,3-f]isoquinolin-6-yl)pyrimidin-2-yl)-2-azaspiro[3.5]nonan-7-yl)methyl)-1-oxo-1,3,5,5a,6,7,8,9-octahydro-2H-pyrazino[1′,2′:4,5][1,4]oxazino[2,3-e]isoindol-2-yl)piperidine-2,6-dione] |  |
| > 0.1 | C[C@H]1Cc2c(ccc3[nH]ncc23)[C@H](c2ccc(N3CCC4(CC3)CC(CN3CCN(c5ccc(NC6CCC(=O)NC6=O)cc5F)CC3)C4)cn2)N1CC(F)(F)F (stereo partly drawn) [Compound B120, 3-((3-fluoro-4-(4-((7-(6-((6R,8S)-8-methyl-7-(2,2,2-trifluoroethyl)-6,7,8,9-tetrahydro-3H-pyrazolo[4,3-f]isoquinolin-6-yl)pyridin-3-yl)-7-azaspiro[3.5]nonan-2-yl)methyl)piperazin-1-yl)phenyl)amino)piperidine-2,6-dione] |  |
| > 0.1 | C[C@H]1Cc2c(ccc3[nH]ncc23)[C@H](c2ccc(N3CC4(CCC(CN5CCN(c6ccc(NC7CCC(=O)NC7=O)cc6F)CC5)CC4)C3)cn2)N1CC(F)(F)F (stereo partly drawn) [Compound B121, 3-((3-fluoro-4-(4-((2-(6-((6R,8S)-8-methyl-7-(2,2,2-trifluoroethyl)-6,7,8,9-tetrahydro-3H-pyrazolo[4,3-f]isoquinolin-6-yl)pyridin-3-yl)-2-azaspiro[3.5]nonan-7-yl)methyl)piperazin-1-yl)phenyl)amino)piperidine-2,6-dione] |  |

Reference: patent US20260256925A1, “INDAZOLE DERIVATIVES AS ESTROGEN RECEPTOR DEGRADERS” (REGENTS OF THE UNIVERSITY OF MICHIGAN, priority 2022, published 2026)
